Tests used:
HEK293 cells [1] = assay: Cell death assay in HEK293 cells (PI staining, flow cytometry); format: cell-based, human; settings: HEK293, 5 mM, 48 hours, in the presence of pluronic acid 0.1%
Procedure: The ability of test compounds to impact cell death in HEK293 cells after 48 hours exposure was assessed.
HEK293 cells were seeded into a 24 well plate ([…]) in DMEM supplemented with 10% FCS, antibiotics and L-glutamine. Drugs at indicated concentrations were added followed by incubation for 48 hours at 37° C. before HEK293 cells were washed, trypsinised and resuspended in PBS prior to PI staining (0.1 μg/ml) before analysis of PI+ ve cells by flow cytometry.

HEK293 cells [2] = assay: ROS production in intact HEK293 cells (DCFDA, flow cytometry); format: cell-based, human; settings: 5 mM, 48 hours, absence and presence of pluronic acid 0.1%
Procedure: The ability of test compounds to impact ROS production in intact HEK293 cells after 48 hours exposure was assessed.
HEK293 cells were stained with 2′,7′-dichlorofluorescein diacetate (DCFDA; 10 μM, 30 minutes, 37° C.). The cells were then washed and resuspended to 250×10^5/ml. The stained HEK293 cells were seeded into a 24 well plate ([…]) in DMEM supplemented with 10% FCS, antibiotics and L-glutamine. Drugs at indicated concentrations were added followed by incubation for 48 hours at 37° C. before HEK293 cells were washed, trypsinised and resuspended in PBS prior to analysis for ROS production by flow cytometry.

rat = settings: oral; cited from earlier work
[3] = system: Modified mouse fibroblasts Nrf2−/−; settings: cited from earlier work
dog = settings: in vivo, po; cited from earlier work
[4] = system: cells (depending on the cell studied); settings: read-out: LC 50, in vitro; cited from earlier work

Row | Compound | cell death (PI staining) (HEK293 cells [1]) | ROS production (HEK293 cells [2]) | LD50 rat (rat) [mg/kg] | sensitivity to diquat compared to normal unmodified [wildtype] cells [3] | LD50 dog (dog) [mg/kg] | CC50 [4] [µM]
1 | CC(C)(N=NC(C)(C)C(=N)N)C(=N)N.Cl.Cl [AAPH] | inducedcell death in HEK293 cells in 2/3 experiments | induced ROS production in the absence and presence of pluronic acid | – | – | – | –
2 | c1cc[n+]2c(c1)-c1cccc[n+]1CC2 [Diquat] | – | – | 231 | approximately a fourfold increase in sensitivity | 100 to 200 | 40 to 180

Reference: patent US20140066449A1, “DIPYRIDINIUM DERIVATIVES” (SABREPHARM LIMITED, priority 2011, published 2014)
